Key:
[1] = Hygroscopicity / water content at room conditions (TGA, FIG. 6); format: physicochemical; settings: for Hygroscopicity: room conditions, GBPE-Ca compared to GBPE sodium salt
Procedure: Thermogravimetric Analysis (“TGA”) • TGA data obtained from TGA/DSC 1 of Mettler-Toledo or TA Instruments TGA 2959 • Heating range: 25-200 C; heating rate: 10° C./min, • Nitrogen flow 40 ml/min • Mass weight about 10 mg.

[2] = Thermogravimetric analysis (TGA): temperature at which thermal decomposition starts; format: physicochemical; settings: 25-200 C, 10° C./min, nitrogen
[3] = Solubility test in distilled water; format: physicochemical; settings: for Solubility in water (class in words) / Solubility (g/ml water): distilled water; for Solubility (g/ml water): 100 mg sample
Procedure: Solubility was determined by placing 100 mg of sample material in a 50 ml glass beaker, adding 10 μL portions of distilled water and agitating until dissolved.

[4] = long period of storing

Row | Structure (SMILES) | Hygroscopicity [1] | Temperature at which decomposition starts [2] [°C] | Solubility in water (class in words) [3] | Solubility (g/ml water) [3] [g/mL] | Water content when kept in room conditions ([1]; FIG. 6) | Stability of form during storage [4] | Solubility compared to GBPE sodium salt [3]
1 | CC(OC(=O)NCC1(CC(=O)[O-])CCCCC1)OC(=O)C(C)C.[Na+] (stereo not shown) [GBPE sodium salt, reference compound] | extremely hydrophilic | – | – | – | – | – | –
2 | CC(OC(=O)NCC1(CC(=O)[O-])CCCCC1)OC(=O)C(C)C.CC(OC(=O)NCC1(CC(=O)[O-])CCCCC1)OC(=O)C(C)C.[Mg+2] (stereo not shown) [GBPE-Mg salt] | – | 70 | sparingly soluble (a compound having a solubility of about 0.01 g/ml to about 0.03 g/ml) | 0.020 | – | – | –
3 | CC(OC(=O)NCC1(CC(=O)O)CCCCC1)OC(=O)C(C)C (stereo not drawn) [GBPE amorphous, 1-{[(α-isobutanoyloxyethoxy)carbonyl]-aminomethyl}-1-cyclohexane acetic acid, reference compound] | – | – | insoluble | – | – | – | –
4 | CC(OC(=O)NCC1(CC(=O)[O-])CCCCC1)OC(=O)C(C)C.CC(OC(=O)NCC1(CC(=O)[O-])CCCCC1)OC(=O)C(C)C.[Ba+2] (stereo not shown) [GBPE-Ba salt] | non-hygroscopic | 60 | freely soluble (a compound having a solubility of about 0.1 to about 1 g/ml) | 0.125 | contained no water | stability over a long period of time | –
5 | CC(OC(=O)NCC1(CC(=O)[O-])CCCCC1)OC(=O)C(C)C.CC(OC(=O)NCC1(CC(=O)[O-])CCCCC1)OC(=O)C(C)C.[Ca+2] (stereo not shown) [GBPE-Ca salt] | less hygroscopic | 70 | sparingly soluble (a compound having a solubility of about 0.01 g/ml to about 0.03 g/ml) | 0.016 | – | – | less soluble
